The record followed here is patent US20230348442A1, “GALECTIN-3 INHIBITING 2-HYDROXYCYCLOALKANE-1-CARBAMOYL DERIVATIVES” (Idorsia Pharmaceuticals Ltd, priority 2020, published 2023).

Molecules are shown by their SMILES.

human Gal-3 (hGal-3), sequence (P17931 whole entry): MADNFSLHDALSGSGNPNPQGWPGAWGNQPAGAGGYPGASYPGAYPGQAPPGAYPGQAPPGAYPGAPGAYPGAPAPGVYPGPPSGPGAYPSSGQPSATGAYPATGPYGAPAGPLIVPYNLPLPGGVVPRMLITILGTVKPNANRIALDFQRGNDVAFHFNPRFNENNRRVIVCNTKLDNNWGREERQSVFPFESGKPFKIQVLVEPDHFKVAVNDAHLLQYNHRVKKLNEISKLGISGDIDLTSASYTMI

The test concerns the target human Gal-3 (hGal-3) (Homo sapiens (Human), UniProt P17931). Kind of test: competitive binding assay: binding of biotinylated hGal-3 to microplate-adsorbed asialofetuin (ASF), spectrophotometric. Particulars: Activity on hGal-3; mean values of several measurements. The method in brief:
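Compounds diluted in DMSO competed with biotinylated hGal-3 or hGal-1 (300-1000 ng/mL) for binding to plate-adsorbed asialofetuin for 3 h at 4° C. Bound galectin was detected with streptavidin-peroxidase (80 ng/mL, 1 h, 4° C) and ABTS substrate; IC50 reported as mean of several measurements.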
In turn, `CO[C@@H]1[C@@H](n2cc(-c3cc(F)c(Br)c(F)c3)nn2)[C@@H](O)[C@@H](CO)O[C@H]1C(=O)N(c1cc(Br)cc(C#N)c1)[C@@H]1CC[C@H]1O` [Example 2.6.5R, (2R,3R,4S,5R,6R)-4-(4-(4-bromo-3,5-difluorophenyl)-1H-1,2,3-triazol-1-yl)-N-(3-bromo-5-cyanophenyl)-5-hydroxy-N-((1R,2R)-2-hydroxycyclobutyl)-6-(hydroxymethyl)-3-methoxytetrahydro-2H-pyran-2-carboxamide] registered an IC50 of 303 nM.

Molecule `CO[C@@H]1[C@@H](n2cc(-c3ccc(C)c(F)c3F)nn2)[C@@H](O)[C@@H](CO)O[C@H]1C(=O)N(c1cc(Br)cc(C#N)c1)[C@@H]1CCC[C@H]1O` [Example 1.11.5R, (2R,3R,4S,5R,6R)-N-(3-bromo-5-cyanophenyl)-4-(4-(2,3-difluoro-4-methylphenyl)-1H-1,2,3-triazol-1-yl)-5-hydroxy-N-((1R,2R)-2-hydroxycyclopentyl)-6-(hydroxymethyl)-3-methoxytetrahydro-2H-pyran-2-carboxamide] gave an IC50 of 73.1 nM.

For `CO[C@@H]1[C@@H](n2cc(-c3cc(F)c(Br)c(F)c3)nn2)[C@@H](O)[C@@H](CO)O[C@H]1C(=O)N(c1cc(F)cc(C#N)c1)[C@H]1CC[C@@H]1O` [Example 2.6.7, (2R,3R,4S,5R,6R)-4-(4-(4-bromo-3,5-difluorophenyl)-1H-1,2,3-triazol-1-yl)-N-(3-cyano-5-fluorophenyl)-5-hydroxy-N-((1S,2S)-2-hydroxycyclobutyl)-6-(hydroxymethyl)-3-methoxytetrahydro-2H-pyran-2-carboxamide], the half-inhibitory concentration (IC50) came to 183 nM.

As to `CO[C@@H]1[C@@H](n2cc(-c3ccc(Br)c(F)c3F)nn2)[C@@H](O)[C@@H](CO)O[C@H]1C(=O)N(c1cc(F)cc(C#N)c1)[C@@H]1CC[C@H]1O` [Example 2.12.7R, (2R,3R,4S,5R,6R)-4-(4-(4-bromo-2,3-difluorophenyl)-1H-1,2,3-triazol-1-yl)-N-(3-cyano-5-fluorophenyl)-5-hydroxy-N-((1R,2R)-2-hydroxycyclobutyl)-6-(hydroxymethyl)-3-methoxytetrahydro-2H-pyran-2-carboxamide], the IC50 stood at 107 nM.

`CO[C@@H]1[C@@H](n2cc(-c3cc(F)c(Br)c(F)c3)nn2)[C@@H](O)[C@@H](CO)O[C@H]1C(=O)N(c1cc(Cl)cc(C#N)c1)[C@H]1CC[C@@H]1O` [Example 2.6.4, (2R,3R,4S,5R,6R)-4-(4-(4-bromo-3,5-difluorophenyl)-1H-1,2,3-triazol-1-yl)-N-(3-chloro-5-cyanophenyl)-5-hydroxy-N-((1S,2S)-2-hydroxycyclobutyl)-6-(hydroxymethyl)-3-methoxytetrahydro-2H-pyran-2-carboxamide]: the IC50 stood at 80 nM.

For the molecule `CO[C@@H]1[C@@H](n2cc(-c3ccc(C)c(F)c3F)nn2)[C@@H](O)[C@@H](CO)O[C@H]1C(=O)N(c1cc(Br)cc(C#N)c1)[C@H]1CCC[C@@H]1O` [Example 1.11.5, (2R,3R,4S,5R,6R)-N-(3-bromo-5-cyanophenyl)-4-(4-(2,3-difluoro-4-methylphenyl)-1H-1,2,3-triazol-1-yl)-5-hydroxy-N-((1S,2S)-2-hydroxycyclopentyl)-6-(hydroxymethyl)-3-methoxytetrahydro-2H-pyran-2-carboxamide], the IC50 came to 14.9 nM.

Molecule `COc1cc(-c2cn([C@H]3[C@@H](O)[C@@H](CO)O[C@@H](C(=O)N(c4cc(Br)cc(Br)c4)[C@H]4CCC[C@@H]4O)[C@@H]3OC)nn2)cc(F)c1F` [Example 1.3.11, (2R,3R,4S,5R,6R)-N-(3,5-dibromophenyl)-4-(4-(3,4-difluoro-5-methoxyphenyl)-1H-1,2,3-triazol-1-yl)-5-hydroxy-N-((1S,2S)-2-hydroxycyclopentyl)-6-(hydroxymethyl)-3-methoxytetrahydro-2H-pyran-2-carboxamide] yielded an IC50 of 28.8 nM.

In turn, `CO[C@@H]1[C@@H](n2cc(-c3cc(F)c(Cl)c(F)c3)nn2)[C@@H](O)[C@@H](CO)O[C@H]1C(=O)N(c1cc(Cl)cc(C#N)c1)[C@H]1CCC[C@@H]1O` [Example 1.5.4, (2R,3R,4S,5R,6R)-4-(4-(4-chloro-3,5-difluorophenyl)-1H-1,2,3-triazol-1-yl)-N-(3-chloro-5-cyanophenyl)-5-hydroxy-N-((1S,2S)-2-hydroxycyclopentyl)-6-(hydroxymethyl)-3-methoxytetrahydro-2H-pyran-2-carboxamide] displayed an IC50 of 36.7 nM.

`CO[C@@H]1[C@@H](n2cc(-c3cc(F)c(Cl)c(Cl)c3)nn2)[C@@H](O)[C@@H](CO)O[C@H]1C(=O)N(c1cc(Br)cc(C#N)c1)[C@H]1CCC[C@@H]1O` [Example 1.17.5, (2R,3R,4S,5R,6R)-N-(3-bromo-5-cyanophenyl)-4-(4-(3,4-dichloro-5-fluorophenyl)-1H-1,2,3-triazol-1-yl)-5-hydroxy-N-((1S,2S)-2-hydroxycyclopentyl)-6-(hydroxymethyl)-3-methoxytetrahydro-2H-pyran-2-carboxamide] registered an IC50 of 46.3 nM.

`CO[C@@H]1[C@@H](n2cc(-c3cc(F)c(F)c(F)c3)nn2)[C@@H](O)[C@@H](CO)O[C@H]1C(=O)N(c1cc(Cl)cc(C#N)c1)[C@@H]1CC[C@H]1O` [Example 2.1.4R, (2R,3R,4S,5R,6R)-N-(3-chloro-5-cyanophenyl)-5-hydroxy-N-((1R,2R)-2-hydroxycyclobutyl)-6-(hydroxymethyl)-3-methoxy-4-(4-(3,4,5-trifluorophenyl)-1H-1,2,3-triazol-1-yl)tetrahydro-2H-pyran-2-carboxamide] yielded an IC50 of 390 nM.

Regarding `CO[C@@H]1[C@@H](n2cc(-c3cc(F)c(Cl)c(F)c3)nn2)[C@@H](O)[C@@H](CO)O[C@H]1C(=O)N(c1cc(Cl)cc(C#N)c1)[C@H]1CC[C@@H]1O` [Example 2.5.4, (2R,3R,4S,5R,6R)-4-(4-(4-chloro-3,5-difluorophenyl)-1H-1,2,3-triazol-1-yl)-N-(3-chloro-5-cyanophenyl)-5-hydroxy-N-((1S,2S)-2-hydroxycyclobutyl)-6-(hydroxymethyl)-3-methoxytetrahydro-2H-pyran-2-carboxamide], the IC50 turned out to be 71.4 nM.

Regarding `CO[C@@H]1[C@@H](n2cc(-c3cc(F)c(F)c(F)c3)nn2)[C@@H](O)[C@@H](CO)O[C@H]1C(=O)N(c1cccc(Br)c1)[C@@H]1CCC[C@H]1O` [Example 1.1.10R, (2R,3R,4S,5R,6R)-N-(3-bromophenyl)-5-hydroxy-N-((1R,2R)-2-hydroxycyclopentyl)-6-(hydroxymethyl)-3-methoxy-4-(4-(3,4,5-trifluorophenyl)-1H-1,2,3-triazol-1-yl)tetrahydro-2H-pyran-2-carboxamide], the 50% inhibitory concentration (IC50) worked out at 376 nM.

`CO[C@@H]1[C@@H](n2cc(-c3cc(F)c(F)c(F)c3)nn2)[C@@H](O)[C@@H](CO)O[C@H]1C(=O)N(c1cccc(Br)c1)[C@@H]1CC[C@H]1O` [Example 2.1.10R, (2R,3R,4S,5R,6R)-N-(3-bromophenyl)-5-hydroxy-N-((1R,2R)-2-hydroxycyclobutyl)-6-(hydroxymethyl)-3-methoxy-4-(4-(3,4,5-trifluorophenyl)-1H-1,2,3-triazol-1-yl)tetrahydro-2H-pyran-2-carboxamide] came in with a 50% inhibitory concentration (IC50) of 203 nM.

The molecule `CO[C@@H]1[C@@H](n2cc(-c3cc(F)c(Cl)c(Cl)c3)nn2)[C@@H](O)[C@@H](CO)O[C@H]1C(=O)N(c1cc(Br)cc(C#N)c1)[C@@H]1CC[C@H]1O` [Example 2.17.5R, (2R,3R,4S,5R,6R)-N-(3-bromo-5-cyanophenyl)-4-(4-(3,4-dichloro-5-fluorophenyl)-1H-1,2,3-triazol-1-yl)-5-hydroxy-N-((1R,2R)-2-hydroxycyclobutyl)-6-(hydroxymethyl)-3-methoxytetrahydro-2H-pyran-2-carboxamide] had a 50% inhibitory concentration (IC50) of 254 nM.

`CO[C@@H]1[C@@H](n2cc(-c3cc(F)c(C)c(F)c3)nn2)[C@@H](O)[C@@H](CO)O[C@H]1C(=O)N(c1cc(Br)cc(C#N)c1)[C@H]1CCC[C@@H]1O` [Example 1.4.5, (2R,3R,4S,5R,6R)-N-(3-bromo-5-cyanophenyl)-4-(4-(3,5-difluoro-4-methylphenyl)-1H-1,2,3-triazol-1-yl)-5-hydroxy-N-((1S,2S)-2-hydroxycyclopentyl)-6-(hydroxymethyl)-3-methoxytetrahydro-2H-pyran-2-carboxamide] gave an IC50 of 16.9 nM.

`CC(=O)O[C@@H]1[C@@H](n2cc(-c3cc(F)c(F)c(F)c3)nn2)[C@@H](O)[C@@H](CO)O[C@H]1C(=O)N(c1cc(Cl)cc(Cl)c1)[C@H]1CC[C@@H]1O` [Example 2A.1.2, (2R,3R,4S,5R,6R)-2-((3,5-dichlorophenyl)((1S,2S)-2-hydroxycyclobutyl)carbamoyl)-5-hydroxy-6-(hydroxymethyl)-4-(4-(3,4,5-trifluorophenyl)-1H-1,2,3-triazol-1-yl)tetrahydro-2H-pyran-3-yl acetate] came in with a half-inhibitory concentration (IC50) of 29 nM.

As for `CO[C@@H]1[C@@H](n2cc(-c3cc(F)c(Br)c(F)c3)nn2)[C@@H](O)[C@@H](CO)O[C@H]1C(=O)N(c1cc(Cl)cc(C#N)c1)[C@@H]1CC[C@H]1O` [Example 2.6.4R, (2R,3R,4S,5R,6R)-4-(4-(4-bromo-3,5-difluorophenyl)-1H-1,2,3-triazol-1-yl)-N-(3-chloro-5-cyanophenyl)-5-hydroxy-N-((1R,2R)-2-hydroxycyclobutyl)-6-(hydroxymethyl)-3-methoxytetrahydro-2H-pyran-2-carboxamide], the 50% inhibitory concentration (IC50) is 174 nM.

Molecule `CC(=O)O[C@@H]1[C@@H](n2cc(-c3cc(F)c(C)c(F)c3)nn2)[C@@H](O)[C@@H](CO)O[C@H]1C(=O)N(c1cc(Cl)cc(Cl)c1)[C@H]1CCC[C@@H]1O` [Example 1A.4.2, (2R,3R,4S,5R,6R)-2-((3,5-dichlorophenyl)((1S,2S)-2-hydroxycyclopentyl)carbamoyl)-4-(4-(3,5-difluoro-4-methylphenyl)-1H-1,2,3-triazol-1-yl)-5-hydroxy-6-(hydroxymethyl)tetrahydro-2H-pyran-3-yl acetate] had a half-maximal inhibitory concentration (IC50) of 12.9 nM.

Usually IC50 stands for the concentration at which inhibition is half-maximal. A high value points to weaker potency.
